These results are taken from patent US9856242B2, “5-fluoro-N-(pyridin-2-yl)pyridin-2-amine derivatives containing a sulfone group” (Bayer Pharma Aktiengesellschaft, priority 2014, dated 2018).

One test addresses T1, CDK2/CycE (Homo sapiens, UniProt P24941).
T1 construct: GST; purchased ProQinase GmbH (Freiburg, Germany); host or cells: insect cells (Sf9)
In words: CDK2/CycE high ATP kinase assay (Method 2b, TR-FRET, 2 mM ATP). In kind it is biochemical. On the procedure: 2b. CDK2/CycE High ATP Kinase Assay
CDK2/CycE-inhibitory activity of compounds of the present invention at 2 mM adenosine-tri-phosphate (ATP) was quantified employing the CDK2/CycE TR-FRET (TR-FRET=Time Resolved Fluorescence Energy Transfer) assay as described in the following paragraphs.
Recombinant fusion proteins of GST and human CDK2 and of GST and human CycE, expressed in insect cells (Sf9) and purified by Glutathion-Sepharose affinity chromatography, were purchase from ProQinase GmbH (Freiburg, Germany). As substrate for the kinase reaction biotinylated peptide biotin-Ttds-YISPLKSPYKISEG (C-terminus in amid form) was used which can be purchased e.g. form the company JERINI peptide technologies (Berlin, Germany). […]
The resulting mixture was incubated 1 h at 22° C. to allow the formation of complex between the phosphorylated biotinylated peptide and the detection reagents. Subsequently the amount of phosphorylated substrate was evaluated by measurement of the resonance energy transfer from the Eu-chelate to the streptavidine-XL. Therefore, the fluorescence emissions at 620 nm and 665 nm after excitation at 350 nm wer measured in a TR-FRET reader, e.g. a Rubystar (BMG Labtechnologies, Offenburg, Germany) or a Viewlux (Perkin-Elmer). […]

For a further test, the target named is T2, CDK9/CycT1 (Homo sapiens, UniProt P50750).
T2 construct: Recombinant full-length His-tagged human CDK9 and CycT1; His; purchased Invitrogen PV4131; host or cells: insect cells
T2 sequence (P50750 whole entry): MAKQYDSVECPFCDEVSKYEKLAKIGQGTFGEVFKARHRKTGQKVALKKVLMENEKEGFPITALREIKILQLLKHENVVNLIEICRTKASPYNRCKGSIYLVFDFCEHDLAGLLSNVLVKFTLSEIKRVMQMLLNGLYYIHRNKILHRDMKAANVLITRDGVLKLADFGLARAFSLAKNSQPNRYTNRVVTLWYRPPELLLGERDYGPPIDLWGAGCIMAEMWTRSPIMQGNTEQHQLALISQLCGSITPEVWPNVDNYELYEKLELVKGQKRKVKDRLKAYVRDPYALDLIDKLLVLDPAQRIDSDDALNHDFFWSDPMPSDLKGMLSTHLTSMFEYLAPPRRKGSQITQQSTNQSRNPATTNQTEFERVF
T2 sequence (O60563 whole entry partner): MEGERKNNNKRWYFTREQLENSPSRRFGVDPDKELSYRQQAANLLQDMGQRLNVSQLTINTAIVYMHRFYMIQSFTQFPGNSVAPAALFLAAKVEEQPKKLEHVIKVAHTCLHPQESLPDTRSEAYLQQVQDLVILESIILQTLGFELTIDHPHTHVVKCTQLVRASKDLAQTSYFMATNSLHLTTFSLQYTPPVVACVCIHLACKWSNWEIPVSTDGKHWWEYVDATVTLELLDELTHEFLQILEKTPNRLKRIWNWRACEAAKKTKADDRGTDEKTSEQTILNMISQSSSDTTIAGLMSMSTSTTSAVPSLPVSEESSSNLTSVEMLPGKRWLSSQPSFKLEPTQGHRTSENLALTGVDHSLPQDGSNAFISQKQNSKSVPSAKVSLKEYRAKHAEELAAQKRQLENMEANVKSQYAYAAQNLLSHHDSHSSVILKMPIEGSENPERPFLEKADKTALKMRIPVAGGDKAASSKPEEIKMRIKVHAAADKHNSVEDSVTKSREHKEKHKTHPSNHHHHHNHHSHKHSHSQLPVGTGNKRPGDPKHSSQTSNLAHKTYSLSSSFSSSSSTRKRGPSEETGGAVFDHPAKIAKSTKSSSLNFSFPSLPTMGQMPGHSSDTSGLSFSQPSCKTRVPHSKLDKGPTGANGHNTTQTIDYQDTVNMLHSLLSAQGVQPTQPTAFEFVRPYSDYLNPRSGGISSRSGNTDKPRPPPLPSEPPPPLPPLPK
Nature of the test: CDK9/CycT1 high ATP kinase assay (Method 1b, TR-FRET, 2 mM ATP). The class given is biochemical. The conditions noted are these: for IC50: Method 1b, 2 mM ATP; for Selectivity high ATP CDK9/high ATP CDK2: according to Methods 1b and 2b (ratio of high ATP CDK2 IC50 to high ATP CDK9 IC50). On the procedure: 1b. CDK9/CycT1 High ATP Kinase Assay
CDK9/CycT1-inhibitory activity of compounds of the present invention at a high ATP concentration after preincubation of enzyme and test compounds was quantified employing the CDK9/CycT1 TR-FRET assay as described in the following paragraphs.
Recombinant full-length His-tagged human CDK9 and CycT1, expressed in insect cells and purified by Ni-NTA affinity chromatography, were purchase from Invitrogen (Cat. No PV4131). As substrate for the kinase reaction biotinylated peptide biotin-Ttds-YISPLKSPYKISEG (C-terminus in amid form) was used which can be purchased e.g. form the company JERINI peptide technologies (Berlin, Germany). For the assay 50 n1 of a 100 fold concentrated solution of the test compound in DMSO was pipetted into a black low volume 384 well microtiter plate (Greiner Bio-One, Frickenhausen, Germany), 2 μl of a solution of CDK9/CycT1 in aqueous assay buffer [50 mM Tris/HCl pH 8.0, 10 mM MgCl2, 1.0 mM dithiothreitol, 0.1 mM sodium ortho-vanadate, 0.01% (v/v) Nonidet-P40 (Sigma)] were added and the mixture was incubated for 15 min at 22° C. to allow pre-binding of the test compounds to the enzyme before the start of the kinase reaction. Then the kinase reaction was started by the addition of 3 μl of a solution of adenosine-tri-phosphate (ATP, 3.3 mM=>final conc. in the 5 μl assay volume is 2 mM) and substrate (1.67 μM=>final conc. in the 5 μl assay volume is 1 μM) in assay buffer and the resulting mixture was incubated for a reaction time of 25 min at 22° C. The concentration of CDK9/CycT1 was adjusted depending of the activity of the enzyme lot and was chosen appropriate to have the assay in the linear range, typical concentrations were in the range of 0.5 μg/mL. The reaction was stopped by the addition of 5 μl of a solution of TR-FRET detection reagents (0.2 μM streptavidine-XL665 [Cisbio Bioassays, Codolet, France] and 1 nM anti-RB(pSer807/pSer811)-antibody from BD Pharmingen [#558389] and 1.2 nM LANCE EU-W1024 labeled anti-mouse IgG antibody [Perkin-Elmer, product no. AD0077]) in an aqueous EDTA-solution (100 mM EDTA, 0.2% (w/v) bovine serum albumin in 100 mM HEPES/NaOH pH 7.0).
The resulting mixture was incubated 1 h at 22° C. to allow the formation of complex between the phosphorylated biotinylated peptide and the detection reagents. Subsequently the amount of phosphorylated substrate was evaluated by measurement of the resonance energy transfer from the Eu-chelate to the streptavidine-XL. Therefore, the fluorescence emissions at 620 nm and 665 nm after excitation at 350 nm was measured in a HTRF reader, e.g. a Rubystar (BMG Labtechnologies, Offenburg, Germany) or a Viewlux (Perkin-Elmer). The ratio of the emissions at 665 nm and at […] was taken as the measure for the amount of phosphorylated substrate. The data were normalised (enzyme reaction without inhibitor=0% inhibition, all other assay components but no enzyme=100% inhibition).

As for `CS(=O)(=O)Cc1ccnc(Nc2cc(-c3ccc(F)c4ccoc34)c(F)cn2)c1` [Example 1, 5-Fluoro-4-(4-fluoro-1-benzofuran-7-yl)-N-{4-[(methylsulfonyl)methyl]pyridin-2-yl}pyridin-2-amine], the IC50 against CDK2/CycE stood at 535 nM. On CDK9/CycT1, the midpoint of inhibition, the IC50, lay at 2 nM and the “Selectivity high ATP CDK9/high ATP CDK2” value was 268. On CDK9/CycT1, `CS(=O)(=O)Cc1ccnc(Nc2cc(-c3cccc4ccoc34)c(F)cn2)c1` [Example 5, 4-(1-Benzofuran-7-yl)-5-fluoro-N-{4-[(methylsulfonyl)methyl]pyridin-2-yl}pyridin-2-amine] yielded an IC50 of 2 nM. The same measure, in the same setting: the value for `Cc1cc(CS(C)(=O)=O)cc(Nc2cc(-c3ccc(F)c4ccoc34)c(F)cn2)n1` [Example 3, 5-Fluoro-4-(4-fluoro-1-benzofuran-7-yl)-N-{6-methyl-4-[(methylsulfonyl)methyl]pyridin-2-yl}pyridin-2-amine] was 0.9 nM; that for `CS(=O)(=O)Cc1cc(Nc2cc(-c3ccc(F)c4ccoc34)c(F)cn2)nc(C(F)(F)F)c1` [Example 4, 5-Fluoro-4-(4-fluoro-1-benzofuran-7-yl)-N-{4-[(methylsulfonyl)methyl]-6-(trifluoromethyl)pyridin-2-yl}pyridin-2-amine] was 4 nM. Molecule `CS(=O)(=O)Cc1cc(F)nc(Nc2cc(-c3ccc(F)c4ccoc34)c(F)cn2)c1` [Example 2, 5-Fluoro-4-(4-fluoro-1-benzofuran-7-yl)-N-{6-fluoro-4-[(methylsulfonyl)methyl]pyridin-2-yl}pyridin-2-amine] registered a 50% inhibitory concentration (IC50) on CDK2/CycE of 517 nM. Further, at CDK9/CycT1, the IC50 worked out at 1 nM and the “Selectivity high ATP CDK9/high ATP CDK2” value came to 517.
